Series [1] can be described thus: Oral bioavailability in rats, Method A. Type of series: in vivo. The settings on record: plasma, Sprague Dawley rats. The method, then: Animals. Male Sprague Dawley rats were used in these studies Animals were randomly assigned to treatment groups and were fasted overnight before oral dosing.
Drugs. The test compound was dissolved in normal saline and administered intravenously (iv) or orally (po) at a dose of 10 mg/kg (calculated based on freebase) and at a volume of 5 mL/kg body weight. The compound was tested as the racemate (indicated by “rac” nomenclature).
Sample Collection and Bioanalysis. Blood samples were collected through external jugular vein (via cannulation) at 0.083, 0.25, 0.5, 1, 2, 4, 8 and 24 h post-dose (total 8 time points/rat, 4 rats per administration route). At each time point, ˜0.2 mL of blood was withdrawn and transferred into a pre-labeled 0.5 mL of micro centrifuge tube containing 4 μL of 200 mM K2EDTA solution as anticoagulant and mixed gently by inverting the tube to facilitate mixing of anticoagulant with the blood. Blood samples were kept on ice until centrifugation. The collected blood samples were centrifuged at 4000 rpm for 10 min at 4° C. Plasma samples were separated after centrifugation, transferred into pre-labeled tubes, and stored at −70° C. until bioanalysis. For bio analysis, 50 μL aliquots of plasma study samples or calibration standards were added to pre-labeled eppendorf tubes and 10 μL of an internal standard solution (diclofenac, 5 μg/mL in 50:50 v/v methanol:water) was added. Samples were quenched with 500 μL of precipitation solution (0.1% v/v formic acid in acetonitrile) and vortexed. All the samples were centrifuged at 14,000 rpm for 10 minutes at 4° C. Following centrifugation, 5 μL of each clear supernatant was analyzed with a fit-for-purpose LC-MS/MS method, with authentic samples of the analyte used for calibration and identification.
Data Analysis. Pharmacokinetic parameters were estimated using the non-compartmental analysis tool of Phoenix® WinNonlin software (Ver 8.1). The drug concentrations of samples below the lower limit of quantitation (LLOQ) were designated as zero.

The target of the next series is MK-801 site of NMDAR (Rattus norvegicus, UniProt P35439). Particulars: read-out: NMDAR Ki ± SEM, from Ebert et al. 1997; cited from earlier work.
A short description of series [2]: Formation of metabolites 11R/11S in RLM (High Activity conditions). Particulars: LC-MS/MS. It counts as in vitro ADME, Sprague Dawley rats. The method, then:
RLM Stability (High Activity). Pooled RLM from male Sprague Dawley rats (XenoTech R1000, lot #1910100) were used. Microsomal incubations were carried out in 96-well plates in 5 aliquots of 40 μL each (one for each time point). Liver microsomal incubation medium consisted of PBS (100 mM, pH 7.4), MgCl2 (3.3 mM), NADPH (3 mM), glucose-6-phosphate (5.3 mM), and glucose-6-phosphate dehydrogenase (0.67 units/mL), with 1.0 mg of liver microsomal protein per mL. Control incubations were performed by replacing the NADPH-cofactor system with PBS. Test compounds (1 μM, final solvent concentration 1.6%) were incubated with microsomes at 37° C., shaking at 100 rpm. Incubations were performed in duplicate. Five time points over 60 minutes were analyzed. […] Supernatants were analyzed for parent compound remaining using a fit-for-purpose liquid chromatography-tandem mass spectrometry (LC-MS/MS) method, with authentic samples of each analyte used for identity confirmation.
This condition was also used for experiments measuring the formation of metabolite 11R from compounds 14R and 88R and formation of metabolite 11S from compounds 14S and 88S. The concentrations of 11R and 11S formed during the incubations were quantified using a fit-for-purpose liquid chromatography-tandem mass spectrometry (LC-MS/MS) method, with authentic samples of each analyte used for calibration and identity confirmation.

The target of series [3] is MK-801 binding site of the N-methyl-D-aspartate receptor (NMDAR). Nature of the series: NMDAR radioligand binding with [3H]MK-801, Method A. More on the design: species or system Wistar rat. Particulars: MK-801 site, Method A, Wistar rat brain (minus cerebellum), 5.0 nM [3H]MK-801; read-out: NMDAR Ki ± SEM. Here is the method:
Radioligand Binding—Method A. Affinity of the test compounds for NMDAR was determined in radioligand binding experiments with [^3H]MK-801 by Eurofins Panlabs, Inc., using methods adapted from the literature (Javitt et al. 1987; Reynolds et al. 1989) and under the conditions described in Table 12.

A further series relates to mice (forced swim test). In words: Forced swim test in mice, 2-h pre-treatment. It counts as in vivo, CD-1 mice. The settings on record: s.c. The method, then: Animals. Male CD-1 mice, aged ˜8 weeks (body weight ˜25-30 g), were used in the experiments. Animals were singly housed under controlled temperatures and 12-hour light/dark cycles, with ad libitum food and water. These studies were carried out in strict accordance with the recommendations in the European Convention for the Protection of Vertebrate Animals Used for Experimental and Other Scientific Purposes. All efforts were made to minimize suffering.
Drugs and Drug Administration. Imipramine hydrochloride was administered intraperitoneally (i.p.) at a dose of 20 mg/kg. Other compounds were tested as the racemates (indicated by “rac” nomenclature) and were administered subcutaneously (s.c.) with doses calculated based on the freebase. Normal saline was used as the vehicle and all compounds were administered at a volume of 5 mL/kg, 2 h before behavioral testing.
Forced Swim Test (FST). Group size was n=10 per treatment, except for vehicle and rac-ketamine groups, which represented n=20 per treatment. Mice were placed individually in a glass cylinder measuring 19 cm wide by 30 cm tall and filled with 24° C. water to a depth of 18 cm. The activity of each mouse was video recorded during each 6-minute session and total immobility time was scored during the last 4 minutes of the session. The water was changed between each mouse to avoid any influence on behavior.
Statistical Analysis. […]

Entries after “also recorded” stand apart in the source; their conditions may differ. Counter-ions that a name gives are not always drawn. Like-named read-outs stand apart in the source and are kept apart here.

The Cmax is the maximum level reached in the sampled fluid or tissue. The term Ki denotes a dissociation constant, usually derived from enzyme kinetics or from competition with a known ligand.

`CNC1(c2ccccc2Cl)CCCCC1=O` (racemic) [rac-ketamine, racemic ketamine, reference compound]: the AUC(0-t) in series [1] (male, rat, 10 mg/kg iv, read-out: AUC0-last (iv) (converted)) is 1340 ng·h/mL; in series [1] (male, rat, 10 mg/kg po, read-out: AUC0-last (po) (converted)), 121 ng·h/mL. For the same compound, the half-life was determined as 41.6 min in series [1] (male, rat, 10 mg/kg iv, read-out: t1/2 (iv)) and 33.7 min in series [1] (male, rat, 10 mg/kg po, read-out: t1/2 (po)). In addition, the maximum concentration (Cmax) in series [1] (male, rat, 10 mg/kg po) came out at 190 ng/mL. The compound also showed a F in series [1] (10 mg/kg) of 9%. On MK-801 site of NMDAR, the inhibition constant Ki was 530 ± 78 nM.

Consider `[2H]C([2H])([2H])N[C@@]1(c2ccccc2)CCCCC1=O` [Compound 88R, (R)-2-((methyl-d3)amino)-2-phenylcyclohexan-1-one], for which the “formation of metabolites 11R and 11S compared to non-deuterated counterparts” value in series [2] was “attenuated formation; also recorded: decreased formation”.

Take `CNC1(c2ccccc2)CCCCC1=O` (racemic) [Compound 14rac, 2-(methylamino)-2-phenylcyclohexan-1-one hydrochloride]: the Ki in series [3] stood at 760 nM. Also, in the series with mice (forced swim test) (2 h before test, last 4 minutes, relative to vehicle, hydrochloride), the “immobility time in FST” value is “reduced time immobile; also recorded: induced antidepressant-like effects”. In addition, the “potency at reducing immobility relative to rac-ketamine” value in the series with mice (forced swim test) (2 h pre-treatment) is recorded as “at least 30 fold”.

(Values after patent US11344510B2, “Arylcyclohexylamine derivatives and their use in the treatment of psychiatric disorders” (Gilgamesh Pharmaceuticals, Inc., priority 2019, dated 2022).)
